Experimental data published in paper PMC6721044, “Ratiometric BRET Measurements of ATP with a Genetically-Encoded Luminescent Sensor” (Sensors (Basel, Switzerland), 2019).

Target: T1, ARSeNL (mScarlet-ε-NanoLuc); ε subunit of the ATP synthase from Bacillus subtilis (Bacillus subtilis, UniProt P37812)
T1 construct: gene atpC; isolated ε subunit (from ATeam1.03) flanked by N-terminal mScarlet and C-terminal NanoLuc as reporters
Test: BRET ratio (mScarlet/NanoLuc) dose-response, microplate reader, Hill fit
Assay type: binding
Settings: read-out: KD (apparent)

T1 sequence (P37812 whole entry): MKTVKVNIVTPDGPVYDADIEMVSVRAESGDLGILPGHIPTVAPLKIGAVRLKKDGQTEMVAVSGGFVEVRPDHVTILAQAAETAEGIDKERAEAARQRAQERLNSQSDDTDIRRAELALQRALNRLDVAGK

Nc1ncnc2c1ncn2[C@@H]1O[C@H](COP(=O)(O)OP(=O)(O)OP(=O)(O)O)[C@@H](O)[C@H]1O [ATP]
Kd: 1100 ± 100 µM
